Reference: patent US8609648B2, “Hepatitis C virus inhibitors” (Enanta Pharmaceuticals, Inc., priority 2009, dated 2013)
pEC50: −log10 of the molar value.

System: HCV 1b genotype replicon
Assay: HCV replicon assay (qRT-PCR or luciferase)
Format: cell-based
Settings: Hepatitis C virus, read-out: Genotype-1b replicon EC50 Range
Source text: HCV replicon cell lines (kindly provided by R. Bartenschlager) isolated from colonies as described by Lohman et. al. (Lohman et al. (1999) Science 285: 110-113, expressly incorporated by reference in its entirety) and used for all experiments. The HCV replicon has the nucleic acid sequence set forth in EMBL Accession No.: AJ242651, the coding sequence of which is from nucleotides 1801 to 8406.
The coding sequence of the published HCV replicon was synthesized and subsequently assembled in a modified plasmid pBR322 (Promega, Madison, Wis.) using standard molecular biology techniques. One replicon cell line (“SGR 11-7”) stably expresses HCV replicon RNA which consists of (i) the HCV 5′UTR fused to the first 12 amino acids of the capsid protein, (ii) the neomycin phosphotransferase gene (neo), (iii) the IRES from encephalomyocarditis virus (EMCV), and (iv) HCV NS2 to NS5B genes and the HCV 3′UTR. Another replicon cell line (“Huh-luc/neo-ET”) described by Vrolijk et. al. (Vrolijk et. al. (2003) Journal of Virological Methods 110:201-209, expressly incorporated by reference in its entirety) stably expresses HCV replicon RNA which consists of (i) the HCV 5′UTR fused to the first 12 amino acids of the capsid protein, (ii) the firefly luciferase reporter gene, (iii) the ubiquitin gene, (iv) the neomycin phosphotransferase gene (neo), (v) the IRES from encephalomyocarditis virus (EMCV), and (vi) HCV NS3 to NS5B genes that harbor cell culture adaptive mutations (E1202G, T1280I, K1846T) and the HCV 3′UTR.
These cell lines were maintained at 37° C., 5% CO2, 100% relative humidity in DMEM (Cat#11965-084, Invitrogen), with 10% fetal calf serum (“FCS”, Invitrogen), 1% non-essential amino acids (Invitrogen), 1% of Glutamax (Invitrogen), 1% of 100× penicillin/streptomycin (Cat#15140-122, Invitrogen) and Geneticin (Cat#10131-027, Invitrogen) at 0.75 mg/ml or 0.5 mg/ml for 11-7 and Huh-luc/neo-ET cells, respectively.
EC50 values of single agent compounds and combinations were determined by HCV RNA detection using quantitative RT-PCR, according to the manufacturer's instructions, with a TAQMAN® One-Step RT-PCR Master Mix Reagents Kit (Cat# AB 4309169, Applied Biosystems) on an ABI Model 7500 thermocycler. The TaqMan primers used for detecting and quantifying HCV RNA were obtained from Integrated DNA Technologies. HCV RNA was normalized to GAPDH RNA levels in drug-treated cells, which is detected and quantified using the Human GAPDH Endogenous Control Mix (Applied Biosystems, AB 4310884E). Total cellular RNA is purified from 96-well plates using the RNAqueous 96 kit (Ambion, Cat# AM1812). Chemical agent cytotoxicity is evaluated using an MTS assay according to the manufacturer's directions (Promega).
Since clinical drug resistance often develops in viral infections following single agent therapies, there is a need to assess the additive, antagonistic, or synergistic properties of combination therapies. We used the HCV replicon system to assess the potential use of the compound of the present invention or in combination therapies with Interferon alpha, cyclosporine analogs and inhibitors targeting other HCV proteins. The acute effects of a single or combinations of drugs are studied in the “Huh-luc/neo-ET” replicon with each chemical agent titrated in an X or Y direction in a 6 point two-fold dilution curve centered around the EC50 of each drug. Briefly, replicon cells are seeded at 7,000 cells per well in 90 ul DMEM (without phenol red, Invitrogen Cat.#31053-036) per well with 10% FCS, 1% non-essential amino acids, 1% of Glutamax and 1% of 100× penicillin/streptomycin and incubated overnight at 37° C., 5% CO2, 100% relative humidity. […]

Compound: COC(=O)N[C@H]1CCC[C@@H]2CC[C@@H](c3ncc(-c4ccc(-c5ccc(-c6cnc([C@@H]7CCCN7C(=O)[C@@H](NC(=O)OC)C(C)C)[nH]6)cc5)cc4)[nH]3)N2C1=O [Example 376]
- pEC50: > 9.00

Compound: COC(=O)N[C@H](C(=O)N1CCC[C@H]1c1ncc(-c2ccc(-c3ccc(-c4cnc([C@@H]5CC[C@@H]6CCCCC(=O)N65)[nH]4)cc3)cc2)[nH]1)C(C)C [Example 375]
- pEC50: > 9.00

Compound: COC(=O)N[C@H]1CC[C@@H]2SC[C@@H](c3ncc(-c4ccc(-c5ccc(-c6cnc([C@@H]7CCCN7C(=O)[C@@H](NC(=O)OC)C(C)C)[nH]6)cc5)cc4)[nH]3)N2C1=O [Example 368]
- pEC50: > 9.00

Compound: COC(=O)N[C@H](C(=O)N1CCC[C@H]1c1ncc(-c2ccc(-c3ccc(-c4cnc([C@@H]5CS[C@H]6CCCC(=O)N65)[nH]4)cc3)cc2)[nH]1)C(C)C [Example 373]
- pEC50: > 9.00

Compound: COC(=O)NC1CC[C@@H]2CC[C@@H](c3ncc(-c4ccc(-c5ccc(-c6cnc([C@@H]7CCCN7C(=O)[C@@H](NC(=O)OC)C(C)C)[nH]6)cc5)cc4)[nH]3)N2C1=O (mixture of isomers) [Example 371]
- pEC50: > 9.00

Compound: COC(=O)N[C@H](C(=O)N1CCC[C@H]1c1ncc(-c2ccc(-c3ccc(-c4cnc([C@@H]5CC[C@H]6CCCCC(=O)N65)[nH]4)cc3)cc2)[nH]1)C(C)C [Example 374]
- pEC50: > 9.00

Compound: COC(=O)N[C@H](C(=O)N1CCC[C@H]1c1ncc(-c2ccc(-c3ccc(-c4cnc([C@@H]5CS[C@@H]6CCCC(=O)N65)[nH]4)cc3)cc2)[nH]1)C(C)C [Example 372]
- pEC50: > 9.00

Compound: COC(=O)N[C@H](C(=O)N1CCC[C@H]1c1ncc(-c2ccc(-c3ccc(-c4cnc([C@@H]5CC[C@@H]6CC[C@@H](NC(=O)OC)C(=O)N65)[nH]4)cc3)cc2)[nH]1)C(C)C [Example 370]
- pEC50: > 9.00

Compound: COC(=O)N[C@H]1CC[C@H]2CC[C@@H](c3ncc(-c4ccc(-c5ccc(-c6cnc([C@@H]7CCCN7C(=O)[C@@H](NC(=O)OC)C(C)C)[nH]6)cc5)cc4)[nH]3)N2C1=O [Example 369]
- pEC50: > 9.00
